{"source": "patent US20250230139A1", "about": "“Novel Process and Intermediate for the Preparation of Apalutamide” (BDR Lifesciences Private Limited, priority 2022, published 2025)", "origin": "cited, not measured here", "key": {"prostate cancer": {"tested_on": "prostate cancer", "details": "mouse xenograft models of prostate cancer"}, "[1]": {"details": "acidic carboxamide moiety"}, "[2]": {"details": "strong base (pH>11)"}, "[3]": {"details": "powder"}}}
{"compound": "CNC(=O)c1ccc(N2C(=S)N(c3cnc(C#N)c(C(F)(F)F)c3)C(=O)C23CCC3)cc1F", "note": "[Apalutamide, 4-[7-[6-cyano-5-(trifluoromethyl)pyridin-3-yl]-8-oxo-6-thioxo-5,7-diazaspiro[3.4]octan-5-yl]-2-fluoro-N-methylbenzamide]", "values": [{"measurement": "apoptosis", "setting": "prostate cancer", "result": "increased apoptosis"}, {"measurement": "tumor cell proliferation", "setting": "prostate cancer", "result": "decreased tumor cell proliferation"}, {"measurement": "tumor volume", "setting": "prostate cancer", "result": "decreased tumor volume"}, {"measurement": "dissociation constant pKa", "setting": "[1]", "result": 9.7}, {"measurement": "solubility in aqueous media", "setting": "aqueous media over a wide range of pH values", "result": "practically insoluble"}, {"measurement": "solubility in organic solvents", "setting": "organic solvents", "result": "practically insoluble to very soluble"}, {"measurement": "stability to strong base", "setting": "[2]", "result": "unstable"}, {"measurement": "hygroscopicity", "setting": "[3]", "result": "non-hygroscopic"}]}
